According to article PMC11780470 (ACS Omega, 2025):

Target: Indole amine 2,3-dioxygenase 1 (IDO1) (Homo sapiens, UniProt P14902)
Experiment: IDO1 enzyme
Assay type: biochemical

Chain of Indole amine 2,3-dioxygenase 1 (IDO1) (P14902 whole entry): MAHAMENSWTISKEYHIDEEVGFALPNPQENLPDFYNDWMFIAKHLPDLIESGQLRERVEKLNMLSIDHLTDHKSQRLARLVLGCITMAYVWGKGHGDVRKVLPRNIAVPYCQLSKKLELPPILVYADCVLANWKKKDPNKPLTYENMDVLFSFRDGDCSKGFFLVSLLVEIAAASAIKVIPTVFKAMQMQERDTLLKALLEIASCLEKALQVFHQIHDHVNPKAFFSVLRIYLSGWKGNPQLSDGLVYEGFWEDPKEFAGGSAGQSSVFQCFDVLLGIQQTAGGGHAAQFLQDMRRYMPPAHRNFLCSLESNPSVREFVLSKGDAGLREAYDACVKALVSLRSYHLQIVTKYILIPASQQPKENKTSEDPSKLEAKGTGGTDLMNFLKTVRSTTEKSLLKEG

IC50: 17.3 µM
SMILES: O=C1c2ccccc2-n2c1nc1ccccc1c2=O [TRYP, indolo [2,1-b]quinazoline-6,12-dione]
